Experimental data as given in US9073897B2, “Cyclic sulfonium salt, process for production of same, and α-glucosidase inhibitor comprising same” (KINKI UNIVERSITY, priority 2011, dated 2015).
pIC50: −log10 of the molar value.

Key:
Assay type in all cases: biochemical
Maltase = test: α-glucosidase inhibition, rat small intestinal brush border membrane, maltose substrate; conditions: rat small intestine brush border membrane; maltose (74 mM); 0.1M maleate buffer (pH6.0); 37° C. for 30 minutes
Method: (§1) Brush border membrane follicles of rat's small intestine were prepared in accordance with the literature (Kessler, M. et al., Biochem. Biophys. Act, 1978, 506, 136), and a suspension of the follicles in 0.1M maleate buffer (pH6.0) was used as an intraintestinal α-glucosidase (maltase, sucrose and isomaltase).
A compound to be tested was dissolved in methylsulfoxide (DMSO) and the resulting solution was diluted with 0.1M maleate buffer to prepare a solution of the testing compound (DMSO concentration: 10%). A solution of a substrate (sucrose (74 mM), maltose (74 mM) or isomaltose (74 mM, […]) in the maleate buffer, a solution (25 μl) of the testing compound and the enzyme solution (25 μl) were mixed and the resulting solution was incubated at 37° C. for 30 minutes. Immediately after incubation, the resulting solution was heated by boiling water to terminate the reaction and mixed with water (150 μl). The concentration of glucose was measured by glucose oxidase method. The final concentration of DMSO in the testing solution was set to 2.5%, and no influence of DMSO on an inhibitory activity was detected. A 50% inhibitory concentration (IC50) was computed from the measured values.

Isomaltase = target: T1, Isomaltase (Rattus norvegicus, UniProt P23739); test: α-glucosidase inhibition, rat small intestinal brush border membrane, isomaltose substrate; conditions: rat small intestine brush border membrane; isomaltose (74 mM); 0.1M maleate buffer (pH6.0); 37° C. for 30 minutes
T1 construct: Brush border membrane follicles of rat's small intestine were prepared; from tissue; host or cells: rat small intestine brush border membrane vesicles
Method: as §1
(§2) A compound to be tested was dissolved in methylsulfoxide (DMSO) and the resulting solution was diluted with 0.1M maleate buffer to prepare a solution of the testing compound (DMSO concentration: 10%). […] A 50% inhibitory concentration (IC50) was computed from the measured values.

Sucrase = target: T2, Sucrase (Rattus norvegicus, UniProt P23739); test: α-glucosidase inhibition, rat small intestinal brush border membrane, sucrose substrate; conditions: rat small intestine brush border membrane; sucrose (74 mM); 0.1M maleate buffer (pH6.0); 37° C. for 30 minutes
T2 construct: Brush border membrane follicles of rat's small intestine were prepared; from tissue; host or cells: rat small intestine brush border membrane vesicles
Method: as §1, §2

T2 sequence (P23739 whole entry): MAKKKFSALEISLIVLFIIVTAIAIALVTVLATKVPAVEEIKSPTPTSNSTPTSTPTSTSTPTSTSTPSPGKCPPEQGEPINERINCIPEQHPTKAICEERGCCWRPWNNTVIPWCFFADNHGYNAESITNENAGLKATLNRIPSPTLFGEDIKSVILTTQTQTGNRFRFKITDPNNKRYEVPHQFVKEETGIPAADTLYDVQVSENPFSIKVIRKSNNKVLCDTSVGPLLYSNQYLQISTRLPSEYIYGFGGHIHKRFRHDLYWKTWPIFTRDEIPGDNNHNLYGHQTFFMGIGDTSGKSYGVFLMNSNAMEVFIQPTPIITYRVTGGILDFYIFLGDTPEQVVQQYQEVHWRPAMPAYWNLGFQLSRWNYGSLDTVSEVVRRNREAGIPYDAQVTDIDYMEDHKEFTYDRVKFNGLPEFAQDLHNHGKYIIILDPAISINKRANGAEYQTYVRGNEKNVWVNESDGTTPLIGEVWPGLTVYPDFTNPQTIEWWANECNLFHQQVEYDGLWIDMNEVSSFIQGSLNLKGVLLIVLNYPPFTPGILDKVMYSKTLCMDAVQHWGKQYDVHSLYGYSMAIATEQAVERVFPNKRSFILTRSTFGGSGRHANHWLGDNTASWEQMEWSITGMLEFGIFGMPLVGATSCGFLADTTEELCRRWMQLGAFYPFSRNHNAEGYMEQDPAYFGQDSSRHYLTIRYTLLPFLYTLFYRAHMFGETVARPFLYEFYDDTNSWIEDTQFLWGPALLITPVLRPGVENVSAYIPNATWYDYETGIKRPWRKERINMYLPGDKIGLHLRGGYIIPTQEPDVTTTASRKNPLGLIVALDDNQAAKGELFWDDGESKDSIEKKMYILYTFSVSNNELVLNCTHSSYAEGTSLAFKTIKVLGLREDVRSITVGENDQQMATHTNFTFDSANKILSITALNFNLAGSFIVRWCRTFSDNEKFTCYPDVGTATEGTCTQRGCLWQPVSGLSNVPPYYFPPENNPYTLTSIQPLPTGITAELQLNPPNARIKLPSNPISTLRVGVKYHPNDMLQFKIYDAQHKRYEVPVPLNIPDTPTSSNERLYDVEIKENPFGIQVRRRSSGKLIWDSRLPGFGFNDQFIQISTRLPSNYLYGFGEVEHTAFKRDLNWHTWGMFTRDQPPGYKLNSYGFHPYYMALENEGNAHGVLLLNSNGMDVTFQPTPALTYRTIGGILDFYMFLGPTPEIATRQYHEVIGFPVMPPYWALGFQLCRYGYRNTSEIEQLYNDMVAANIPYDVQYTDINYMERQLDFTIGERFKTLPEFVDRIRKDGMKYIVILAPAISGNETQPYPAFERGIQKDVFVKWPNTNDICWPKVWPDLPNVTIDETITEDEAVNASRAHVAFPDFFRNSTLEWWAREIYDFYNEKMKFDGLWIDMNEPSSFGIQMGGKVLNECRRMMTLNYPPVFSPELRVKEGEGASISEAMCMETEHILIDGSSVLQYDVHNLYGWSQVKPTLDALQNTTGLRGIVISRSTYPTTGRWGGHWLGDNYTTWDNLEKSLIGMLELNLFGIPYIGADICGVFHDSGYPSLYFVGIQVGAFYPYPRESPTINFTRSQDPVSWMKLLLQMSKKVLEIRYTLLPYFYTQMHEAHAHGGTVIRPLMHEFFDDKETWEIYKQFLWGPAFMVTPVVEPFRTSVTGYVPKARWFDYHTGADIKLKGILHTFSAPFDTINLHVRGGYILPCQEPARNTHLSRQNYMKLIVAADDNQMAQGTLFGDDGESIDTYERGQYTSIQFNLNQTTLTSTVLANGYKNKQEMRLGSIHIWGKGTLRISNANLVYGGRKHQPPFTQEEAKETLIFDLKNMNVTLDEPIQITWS
T1 sequence (P23739 whole entry): as above

Compound	α-glucosidase (IC50) Maltase (Maltase) [µg/mL]	α-glucosidase (IC50) Isomaltase (Isomaltase) [µg/mL]	α-glucosidase (IC50) Sucrase (Sucrase) [µg/mL]	pIC50 (Isomaltase)	pIC50 (Sucrase)
F[B-](F)(F)F.OC[C@H](OCc1ccccc1)[C@H](O)C[S@+]1C[C@@H](O)[C@H](O)[C@H]1CO [Compound (Ig) (X = BF4), 1,4-dideoxy-1,4-[(R)-[2-O-benzyl-4-deoxy-D-erythritol-4-yl]episulfoniumylidene]-D-arabitol tetrafluoroborate]	0.44	0.12	0.32		
OCC(OCc1ccccc1Cl)C(O)C[S+]1CC(O)C(O)C1CO [Compound (Ik), 1,4-Dideoxy-1,4-[(R)-[2-O-(o-chlorobenzyl)-4-deoxy-D-erythritol-4-yl]episulfoniumylidene]-D-arabitol chloride]	0.31			6.16	6.63
OCC(CO)N[C@H]1C[C@](O)(CO)[C@@H](O)[C@H](O)[C@H]1O [voglibose, reference compound]				5.10	6.08
Cc1ccc(COC(CO)C(O)C[S+]2CC(O)C(O)C2CO)cc1 [Compound (Ij), 1,4-Dideoxy-1,4-[(R)-[4-deoxy-2-O-(p-methylbenzyl)-D-erythritol-4-yl]episulfoniumylidene]-D-arabitol chloride]	0.86			5.72	5.51
OCc1ccc(COC(CO)C(O)C[S+]2CC(O)C(O)C2CO)cc1 [Compound (Iw), 1,4-Dideoxy-1,4-[(R)-[4-deoxy-2-O-(p-hydroxymethyl)benzyl)-D-erythritol-4-yl]episulfoniumylidene]-D-arabitol chloride]	1			6.10	5.67
OCC(OCc1ccc(Cl)cc1)C(O)C[S+]1CC(O)C(O)C1CO [Compound (Im), 1,4-Dideoxy-1,4-[(R)-[2-O-(p-chlorobenzyl)-4-deoxy-D-erythritol-4-yl]episulfoniumylidene]-D-arabitol chloride]	0.89			5.75	5.72
OCC(OCc1cccc(Cl)c1)C(O)C[S+]1CC(O)C(O)C1CO [Compound (Il), 1,4-Dideoxy-1,4-[(R)-[2-O-(m-chlorobenzyl)-4-deoxy-D-erythritol-4-yl]episulfoniumylidene]-D-arabitol chloride]	0.53			6.09	5.68
CCCCCCCCCCCCCOC(CO)C(O)C[S+]1CC(O)C(O)C1CO [Compound (Ie), 1,4-Dideoxy-1,4-[(R)-[4-deoxy-2-O-(1-tridecyl)-D-erythritol-4-yl]episulfoniumylidene]-D-arabitol chloride]	1.04			5.66	5.53
CC(C)(C)COC(CO)C(O)C[S+]1CC(O)C(O)C1CO [Compound (If), 1,4-Dideoxy-1,4-[(R)-[4-deoxy-2-O-neopentyl-D-erythritol-4-yl]episulfoniumylidene]-D-arabitol chloride]	0.3			6.07	6.56
CCCCCCCOC(CO)C(O)C[S+]1CC(O)C(O)C1CO [Compound (Id), 1,4-Dideoxy-1,4-[(R)-[4-deoxy-2-O-(1-heptyl)-D-erythritol-4-yl]episulfoniumylidene]-D-arabitol chloride]	0.8			6.15	6.17
COC(CO)C(O)C[S+]1CC(O)C(O)C1CO [Compound (Ia), 1,4-Dideoxy-1,4-[(R)-[4-deoxy-2-O-methyl-D-erythritol-4-yl]episulfoniumylidene]-D-arabitol chloride]	5.3			5.84	5.77
Cc1ccccc1COC(CO)C(O)C[S+]1CC(O)C(O)C1CO [Compound (Ih), 1,4-Dideoxy-1,4-[(R)-[4-deoxy-2-O-(o-methylbenzyl)-D-erythritol-4-yl]episulfoniumylidene]-D-arabitol chloride]	0.66			5.87	5.94
O=[N+]([O-])c1ccc(COC(CO)C(O)C[S+]2CC(O)C(O)C2CO)cc1 [Compound (Iv), 1,4-Dideoxy-1,4-[(R)[4-deoxy-2-O-(p-nitrobenzyl)-D-erythritol-4-yl]episulfoniumylidene]-D-arabitol chloride]	0.68			6.23	6.01
OCC(OCc1ccc(C(F)(F)F)cc1)C(O)C[S+]1CC(O)C(O)C1CO [Compound (Is), 1,4-Dideoxy-1,4-[(R)-[4-deoxy-2-O-(p-trifluoromethylbenzyl)-D-erythritol-4-yl]episulfoniumylidene]-D-arabitol chloride]	0.98			6.04	5.87
OCC(OCc1ccccc1)C(O)C[S+]1CC(O)C(O)C1CO [Compound (Ig) (X = Cl), 1,4-Dideoxy-1,4-[(R)-[2-O-benzyl-4-deoxy-D-erythritol-4-yl]episulfoniumylidene]-D-arabitol chloride]	0.58			6.24	5.80
CCCCCOC(CO)C(O)C[S+]1CC(O)C(O)C1CO [Compound (Ic), 1,4-Dideoxy-1,4-[(R)-[4-deoxy-2-O-(1-pentyl)-D-erythritol-4-yl]episulfoniumylidene]-D-arabitol chloride]	1.52			5.84	5.81
O=S(=O)([O-])OC(CO)C(O)C[S+]1CC(O)C(O)C1CO (stereo not shown) [Salacinol, salacinol, reference compound]	5.2			5.41	5.32
CCOC(CO)C(O)C[S+]1CC(O)C(O)C1CO [Compound (Ib), 1,4-Dideoxy-1,4-[(R)-[4-deoxy-2-O-ethyl-D-erythritol-4-yl]episulfoniumylidene]-D-arabitol chloride]				6.02	6.37
Cc1cccc(COC(CO)C(O)C[S+]2CC(O)C(O)C2CO)c1 [Compound (Ii), 1,4-Dideoxy-1,4-[(R)-[4-deoxy-2-O-(m-methylbenzyl)-D-erythritol-4-yl]episulfoniumylidene]-D-arabitol chloride]	0.84			6.01	5.44
